{
  "source": "patent US8653004B2",
  "about": "“Actives-comprising polymer networks, processes for producing them, and their use” (priority 2007, dated 2014)",
  "assay": "physchem",
  "assay_type": "physicochemical",
  "conditions": "water",
  "data": [
    {"molecule": "CCNc1nc(NC(C)(C)C)nc(SC)n1", "note": "[terbutryn, N2-tert-butyl-N4-ethyl-6-methylthio-1,3,5-triazine-2,4-diamine]", "values": [
      {"measurement": "solubility", "value": "~20", "unit": "µg/mL"}
    ]}
  ]
}
